Experimental data taken from patent US12263172B2, “Toll-like receptor agonists for use in the treatment of hepatitis b” (priority 2019, dated 2025).
Values joined by “and” are separate entries in the source; they are usually repeats but may differ in a detail not shown here. Equal entries are not always repeated. “Also recorded” adds a separate entry of the source.

Assay: Phase 1 single-ascending dose (Part 1): safety and tolerability in healthy adults
Type: in vivo, human
Method: This ongoing trial is a Phase 1 randomized, double-blind, placebo-controlled study in male and female healthy adult volunteers aged 18-55 years. All volunteers provided written, informed consent.
All volunteers were followed up for 4 weeks and safety and tolerability were continuously assessed throughout the study. All adverse events (AEs) were recorded from the time of consent to the completion visit and were graded using the DAIDS toxicity grading scale. Volunteers also underwent physical examinations, electrocardiograms, vital sign checks and clinical laboratory parameters (chemistry, haematology, urinalysis).

Structure (SMILES): CCCCOc1nc(N)c2[nH]cc(Cc3ccc(CN4CCCC4)cc3)c2n1 [Compound 4]
- lab toxicity: Triglycerides (mmol/L), upwards, Grade 3 (single dose 1.8 mg fasted): 1 (16.7%) n (%)
- lab toxicity: Urate (μmol/L), upwards, Grade 1 (single dose 1.8 mg fasted): 1 (16.7%) n (%)
- subjects with at least one AE (single dose 1.8 mg fasted): 5 (83.3%) n (%)
- subjects with at least one AE for which any study drug or study was permanently stopped (single dose 1.8 mg fasted): 0 n (%)
- subjects with at least one AE for which any study drug or study was temporarily stopped (single dose 1.8 mg fasted): 0 n (%)
- subjects with at least one AE possibly related to any study drug (single dose 1.8 mg fasted): 1 (16.7%) n (%)
- subjects with at least one AE possibly, probably or very likely related to any study drug (single dose 1.8 mg fasted): 2 (33.3%) n (%)
- subjects with at least one AE probably related to any study drug (single dose 1.8 mg fasted): 2 (33.3%) n (%)
- subjects with at least one SAE (single dose 1.8 mg fasted): 0 n (%)
- subjects with at least one fatal AE (single dose 1.8 mg fasted): 0 n (%)
- subjects with at least one grade 1 AE (single dose 1.8 mg fasted): 3 (50.0%) n (%)
- subjects with at least one grade 2 AE (single dose 1.8 mg fasted): 2 (33.3%) n (%)
- subjects with at least one grade 3 or 4 AE (single dose 1.8 mg fasted): 0 n (%)
- subjects with fever and flu-like symptoms (flu-like AEs and lymphopenia) (single dose 1.8 mg fasted): 2 and 2/6
- subjects with high VLDL cholesterol levels (non-graded) (single dose 1.8 mg fasted): 4 (66.7%) n (%)
- subjects with high values for segmented neutrophils/leukocytes (non-graded) (single dose 1.8 mg fasted): 4 (66.7%) n (%)
- treatment-related AE: Any AE (single dose 1.8 mg fasted): 2 (33.3%) n (%)
- treatment-related AE: Chills (single dose 1.8 mg fasted): 2 (33.3%) n (%)
- treatment-related AE: Dizziness (single dose 1.8 mg fasted): 2 (33.3%) n (%)
- treatment-related AE: General disorders and administration site conditions (single dose 1.8 mg fasted): 2 (33.3%) n (%)
- treatment-related AE: Headache (single dose 1.8 mg fasted): 1 (16.7%) n (%)
- treatment-related AE: Hypertension (single dose 1.8 mg fasted): 2 (33.3%) n (%)
- treatment-related AE: Myalgia (single dose 1.8 mg fasted): 1 (16.7%) n (%)
- treatment-related AE: Nervous system disorders (single dose 1.8 mg fasted): 2 (33.3%) n (%)
- treatment-related AE: Oropharyngeal pain (single dose 1.8 mg fasted): 1 (16.7%) n (%)
- treatment-related AE: Pyrexia (single dose 1.8 mg fasted): 2 (33.3%) n (%)
- treatment-related AE: Respiratory, thoracic and mediastinal disorders (single dose 1.8 mg fasted): 1 (16.7%) n (%)
- treatment-related AE: Vascular disorder (single dose 1.8 mg fasted): 2 (33.3%) n (%)
- vital signs: Respiratory rate (brpm) Grade 1 (single dose 1.8 mg fasted): 2 (33.3%) n (%)
- vital signs: Respiratory rate (brpm) Grade 2 (single dose 1.8 mg fasted): 1 (16.7%) n (%)
- vital signs: SaO2 (%) 90% to <95% (single dose 1.8 mg fasted): 0 n (%)
- vital signs: SaO2 (%) 95% to <98% (single dose 1.8 mg fasted): 2 (33.3%) n (%)
- vital signs: Standing DBP (mmHg) Grade 1 (single dose 1.8 mg fasted): 3 (50.0%) n (%)
- vital signs: Standing DBP (mmHg) Grade 2 (single dose 1.8 mg fasted): 1 (16.7%) n (%)
- vital signs: Standing DBP (mmHg) Grade 3 (single dose 1.8 mg fasted): 1 (16.7%) n (%)
- vital signs: Standing DBP (mmHg) Low (single dose 1.8 mg fasted): 0 n (%)
- vital signs: Standing SBP (mmHg) Grade 1 (single dose 1.8 mg fasted): 1 (16.7%) n (%)
- vital signs: Standing SBP (mmHg) Low (single dose 1.8 mg fasted): 0 n (%)
- vital signs: Standing pulse (bpm) High (single dose 1.8 mg fasted): 0 n (%)
- vital signs: Standing pulse (bpm) Low (single dose 1.8 mg fasted): 0 n (%)
- vital signs: Supine DBP (mmHg) Grade 1 (single dose 1.8 mg fasted): 1 (16.7%) n (%)
- vital signs: Supine DBP (mmHg) Low (single dose 1.8 mg fasted): 0 n (%)
- vital signs: Supine SBP (mmHg) Grade 1 (single dose 1.8 mg fasted): 1 (16.7%) n (%)
- vital signs: Supine SBP (mmHg) Grade 2 (single dose 1.8 mg fasted): 1 (16.7%) n (%)
- vital signs: Supine SBP (mmHg) Low (single dose 1.8 mg fasted): 0 n (%)
- vital signs: Supine pulse (bpm) Low (single dose 1.8 mg fasted): 1 (16.7%) n (%)
- ↑ AST Grade 3 (laboratory abnormality) (single dose 1.8 mg fasted): 0 n (%)
- ↑ Amylase Grade 2 (laboratory abnormality) (single dose 1.8 mg fasted): 0 n (%)
- ↑ Cholesterol Grade 2 (laboratory abnormality) (single dose 1.8 mg fasted): 1/5
- ↑ Creatine kinase Grade 2 (laboratory abnormality) (single dose 1.8 mg fasted): 1 n (%)
- ↑ Creatine kinase Grade 4 (laboratory abnormality) (single dose 1.8 mg fasted): 0 n (%)
- ↑ Glucose Grade 2 (laboratory abnormality) (single dose 1.8 mg fasted): 0 n (%)
- ↑ LDL cholesterol Grade 2 (laboratory abnormality) (single dose 1.8 mg fasted): 0 n (%)
- ↑ LDL cholesterol Grade 3 (laboratory abnormality) (single dose 1.8 mg fasted): 0 n (%)
- ↑ Lipase Grade 2 (laboratory abnormality) (single dose 1.8 mg fasted): 1/5
- ↑ Pancreatic amylase Grade 2 (laboratory abnormality) (single dose 1.8 mg fasted): 1/2
- ↑ Potassium Grade 2 (laboratory abnormality) (single dose 1.8 mg fasted): 1/5
- ↑ Sodium Grade 2 (laboratory abnormality) (single dose 1.8 mg fasted): 1 n (%)
- ↑ Triglycerides Grade 2 (laboratory abnormality) (single dose 1.8 mg fasted): 0 n (%)
- ↑ Triglycerides Grade 3 (laboratory abnormality) (single dose 1.8 mg fasted): 1 n (%)
- ↓ Bicarbonate Grade 2 (laboratory abnormality) (single dose 1.8 mg fasted): 1 n (%)
- ↓ GFR Grade 2 (laboratory abnormality) (single dose 1.8 mg fasted): 0 n (%)
- ↓ Lymphocytes Grade 2 (laboratory abnormality) (single dose 1.8 mg fasted): 0 n (%)
- ↓ Lymphocytes Grade 4 (laboratory abnormality) (single dose 1.8 mg fasted): 2 n (%)
- ↓ Neutrophils Grade 2 (laboratory abnormality) (single dose 1.8 mg fasted): 1 n (%)
- ↓ Phosphate Grade 2 (laboratory abnormality) (single dose 1.8 mg fasted): 0 n (%)
- lab toxicity: GFR from creatinine adjusted for BSA (mL/s/1.73m^2), downwards, Grade 2 (single dose 1.8 mg fasted, n = 1 with data): 0 n (%)
- safety and tolerability (single oral doses of 0.2-1.8 mg): well tolerated with no major safety concerns; also recorded: generally considered safe and well tolerated
